The text below walks through data of PubChem BioAssay (NCI).

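Five concentrations, 48 hours, 96-well plates. TGI: total growth inhibition.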

What all share (test): growth of human tumour cells (NCI), 48 h
The subject of experiment [1] is A498 renal.
The subject of experiment [2] is A549 NSCLC.
For experiment [3], the system named is ACHN renal.
Experiment [4] concerns EKVX NSCLC.
Experiment [5] deals with HCC-2998 colon.
Experiment [6] concerns HCT-116 colon.
The test system of experiment [7] is HL-60(TB) leukemia.
In experiment [8] the test system is HOP-92 NSCLC.
The test system of experiment [9] is IGROV1 ovarian.
The subject of experiment [10] is M14 melanoma.
In experiment [11] the test system is MCF7 breast.
The subject of experiment [12] is MDA-MB-231 breast.
The test system of experiment [13] is MDA-N.
In experiment [14] the test system is NCI-H226 lung.
In experiment [15] the test system is NCI-H23 lung.
Experiment [16] relates to OVCAR-3 ovarian.
Experiment [17] relates to OVCAR-4 ovarian.
In experiment [18] the test system is RPMI-8226 leukemia.
The subject of experiment [19] is SF-268 CNS.
For experiment [20], the system named is SNB-75 CNS.

With `CC(C)CC1C(=O)NCCC(NC(=O)C(N)Cc2ccc(O)cc2)C(=O)NC(Cc2ccccc2)C(=O)NC(Cc2ccccc2)NC1=O` (centres undefined), the TGI in experiment [1], in experiment [2], in experiment [3], in experiment [4], in [5] and in [6] was over 100 µM in each case. Further, the TGI in experiment [7], in experiment [8], in [9], in experiment [10], in experiment [11] and in experiment [12] was over 100 µM each time. For the same compound, the TGI in experiment [13], in experiment [14], in [15], in experiment [16], in [17] and in [18] was over 100 µM throughout. Also, the TGI in experiment [19] and in experiment [20] was over 100 µM throughout.

With `CC(C)(C)C(=O)C(C(=O)C(C)(C)C)C(=O)C(C)(C)C`, the TGI in [1], in [2], in experiment [3], in experiment [4], in [5] and in experiment [6] was over 100 µM throughout. Further, the TGI in experiment [7], in experiment [8], in experiment [9], in experiment [10], in [11] and in [12] was over 100 µM throughout. Moreover, the TGI in [13], in [14], in experiment [15], in [16], in [17] and in [18] was over 100 µM each time. In addition, the TGI in experiment [19] and in [20] was over 100 µM in each case.

For the compound `COc1c(C)c2c(c(=O)c3c(C)cccc3n2C)c2c1c(=O)c1c(C)cccc1n2C`, the TGI in experiment [1], in [2], in experiment [3], in [4], in experiment [5] and in experiment [6] was over 10 µM throughout. The TGI in experiment [7], in [8], in [9], in [10], in experiment [11] and in experiment [12] was over 10 µM each time. Moreover, the TGI in experiment [13], in [14], in [15], in experiment [16], in [17] and in [18] was over 10 µM each time. Further, the TGI in experiment [19] and in [20] was over 10 µM each time.

In the case of `Oc1cc(-c2ccccc2)cn2c1nc1ccccc12`, the TGI in [1], in [2], in experiment [3], in experiment [4], in experiment [5] and in [6] was over 100 µM in each case. Also, the TGI in experiment [7] was 9.4 µM; in experiment [8] it was over 100 µM; in experiment [9], over 38.8 µM; in experiment [10], over 100 µM; in [11], over 100 µM; in experiment [12], over 100 µM. For the same compound, the TGI in [13], in [14], in experiment [15], in [16], in experiment [17] and in [18] was over 100 µM each time. Further, the TGI in [19] and in experiment [20] was over 100 µM throughout.

On to `Cc1ccc(N=Nc2ccc(O)c(CN(C)C)c2)cc1C`, for which the TGI in experiment [1] is 47.4 µM; in experiment [2], over 100 µM; in experiment [3], 60.1 µM; in experiment [4], 61.8 µM; in experiment [5], 32.7 µM; in experiment [6], over 100 µM. The TGI in experiment [7] was 26.1 µM; in [8] it was over 100 µM; in experiment [9], 84.3 µM; in [10], 81.1 µM; in experiment [11] it was over 100 µM; in experiment [12], over 100 µM. The TGI in experiment [13] was over 100 µM; in experiment [14], over 100 µM; in [15], over 100 µM; in experiment [16], over 100 µM; in experiment [17] it was over 100 µM; in [18], 90.1 µM. Besides, the TGI in experiment [19] and in experiment [20] was over 100 µM each time.

`COc1cc(OC)c2c(=O)cc(-c3ccccc3F)[nH]c2c1`: the TGI is over 100 µM in [1]; over 100 µM in [2]; over 100 µM in experiment [3]; over 100 µM in experiment [4]; 52.3 µM in experiment [5]; over 100 µM in experiment [6]. For the same compound, the TGI in [7], in experiment [8], in [9], in [10], in [11] and in experiment [12] was over 100 µM each time. Moreover, the TGI is over 100 µM in experiment [13]; over 100 µM in [14]; over 100 µM in [15]; over 100 µM in experiment [16]; 53.3 µM in [17]; over 100 µM in experiment [18]. In addition, the TGI in [19] and in experiment [20] was over 100 µM throughout.

Take `c1ccc2c(c1)nc1n2CCCn2ccnc2-1`: the TGI in experiment [1] is over 100 µM; in [2], over 100 µM; in experiment [3] it was over 100 µM; in experiment [4] it was over 100 µM; in [6] it was over 100 µM; in experiment [7], 0.597 µM. Besides, the TGI in [8], in experiment [9], in [10], in [11], in experiment [12] and in experiment [13] was over 100 µM throughout. In addition, the TGI in [14], in experiment [15], in experiment [16], in experiment [17], in experiment [18] and in experiment [19] was over 100 µM throughout. Besides, in [20], the TGI was over 100 µM.
